Assays:
Type in all cases: in vivo
[1] = test system: barnyardgrass (Echinochloa crus-galli); test: Test A preemergence barnyardgrass; conditions: Echinochloa crus-galli, pre-emergence, 240 h, 0 to 100 scale, 0 no effect, 100 complete control, read-out: Barnyardgrass plant response rating
In short: (§1)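 Scores reflect visual comparison with untreated controls after ~10 d in the greenhouse (0 none, 100 complete control). Treatment was a surfactant-containing non-phytotoxic solvent formulation, sprayed onto soil after seeding or onto seedlings at one to two leaves, 2–10 cm tall.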

[2] = test system: kochia (Kochia scoparia); test: Test A preemergence kochia; conditions: Bassia scoparia, pre-emergence, 240 h, 0 to 100 scale, 0 no effect, 100 complete control, read-out: Kochia plant response rating
In short: as §1

[3] = test system: ragweed (common ragweed, Ambrosia elatior); test: Test A preemergence ragweed; conditions: Ambrosia artemisiifolia, pre-emergence, 240 h, 0 to 100 scale, 0 no effect, 100 complete control, read-out: Ragweed plant response rating
In short: as §1

[4] = test system: ryegrass, Italian (Italian ryegrass, Lolium multiflorum); test: Test A preemergence ryegrass, Italian; conditions: Lolium multiflorum, pre-emergence, 240 h, 0 to 100 scale, 0 no effect, 100 complete control, read-out: Ryegrass, Italian plant response rating
In short: as §1

[5] = test system: foxtail, giant (giant foxtail, Setaria faberii); test: Test A preemergence foxtail, giant; conditions: Setaria faberi, pre-emergence, 240 h, 0 to 100 scale, 0 no effect, 100 complete control, read-out: Foxtail, Giant plant response rating
In short: as §1

[6] = test system: pigweed (Amaranthus retroflexus); test: Test A preemergence pigweed; conditions: Amaranthus retroflexus, pre-emergence, 240 h, 0 to 100 scale, 0 no effect, 100 complete control, read-out: Pigweed plant response rating
In short: as §1

[7] = test system: barnyardgrass (Echinochloa crus-galli); test: Test A postemergence barnyardgrass; conditions: Echinochloa crus-galli, post-emergence, 240 h, 0 to 100 scale, 0 is no effect, 100 is complete control, read-out: Plant response rating, Barnyardgrass
In short: as §1

[8] = test system: kochia (Kochia scoparia); test: Test A postemergence kochia; conditions: Bassia scoparia, post-emergence, 240 h, 0 to 100 scale, 0 is no effect, 100 is complete control, read-out: Plant response rating, Kochia
In short: as §1

[9] = test system: ragweed (common ragweed, Ambrosia elatior); test: Test A postemergence ragweed; conditions: Ambrosia artemisiifolia, post-emergence, 240 h, 0 to 100 scale, 0 is no effect, 100 is complete control, read-out: Plant response rating, Ragweed
In short: as §1

[10] = test system: ryegrass, Italian (Italian ryegrass, Lolium multiflorum); test: Test A postemergence ryegrass, Italian; conditions: Lolium multiflorum, post-emergence, 240 h, 0 to 100 scale, 0 is no effect, 100 is complete control, read-out: Plant response rating, Ryegrass, Italian
In short: as §1

[11] = test system: foxtail, giant (giant foxtail, Setaria faberii); test: Test A postemergence foxtail, giant; conditions: Setaria faberi, post-emergence, 240 h, 0 to 100 scale, 0 is no effect, 100 is complete control, read-out: Plant response rating, Foxtail, Giant
In short: as §1

[12] = test system: pigweed (Amaranthus retroflexus); test: Test A postemergence pigweed; conditions: Amaranthus retroflexus, post-emergence, 240 h, 0 to 100 scale, 0 is no effect, 100 is complete control, read-out: Plant response rating, Pigweed
In short: as §1

[13] = test system: wheat (Triticum aestivum); test: Test A postemergence wheat; conditions: Triticum aestivum, post-emergence, 240 h, 0 to 100 scale, 0 is no effect, 100 is complete control, read-out: Plant response rating, Wheat
In short: as §1

[14] = test system: corn (Zea mays); test: Test A postemergence corn; conditions: Zea mays, post-emergence, 240 h, 0 to 100 scale, 0 is no effect, 100 is complete control
In short: as §1

[15] = test system: blackgrass (Alopecurus myosuroides); test: Test A postemergence blackgrass; conditions: Alopecurus myosuroides, post-emergence, 240 h, 0 to 100 scale, 0 is no effect, 100 is complete control, read-out: Plant response rating, Blackgrass
In short: as §1

[16] = test system: galium (catchweed bedstraw, Galium aparine); test: Test A postemergence galium; conditions: Galium, post-emergence, 240 h, 0 to 100 scale, 0 is no effect, 100 is complete control, read-out: Plant response rating, Galium
In short: as §1

[17] = test system: rice (Oryza sativa); test: Test B flooded paddy test rice; conditions: Oryza sativa, Table B, Flood, 250 g ai/ha, scale 0 to 100, read-out: Plant response rating
In short: (§2)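 Plants grown to the 2-leaf stage; pots flooded to 3 cm above soil at treatment, compound applied directly into paddy water, depth held throughout. Greenhouse 13 to 15 d, then visual evaluation against untreated controls.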

[18] = test system: sedge, umbrella (small-flower umbrella sedge, Cyperus difformis); test: Test B flooded paddy test sedge, umbrella; conditions: Cyperus difformis, Table B, Flood, 250 g ai/ha, scale 0 to 100, read-out: Plant response rating
In short: as §2

[19] = test system: ducksalad (Heteranthera limosa); test: Test B flooded paddy test ducksalad; conditions: Heteranthera limosa, Table B, Flood, 250 g ai/ha, scale 0 to 100, read-out: Plant response rating
In short: as §2

[20] = test system: barnyardgrass (Echinochloa crus-galli); test: Test B flooded paddy test barnyardgrass; conditions: Echinochloa crus-galli, Table B, Flood, 250 g ai/ha, scale 0 to 100, read-out: Plant response rating
In short: as §2

`O=C1NCC[C@H](c2ccc(F)cc2)[C@H]1C(=O)Nc1ccccc1C(F)(F)F` [Compound 57, (3R,4S)-4-(4-fluorophenyl)-2-oxo-N-[2-(trifluoromethyl)phenyl]-3-piperidinecarboxamide] showed a pest or weed control at 125 g/ha ([1]; 125 g ai/ha) of 30%, a pest or weed control at 500 g/ha ([1]; 500 g ai/ha) of 70% and a pest or weed control at 125 g/ha ([2]; 125 g ai/ha) of 0%. It also gave a pest or weed control at 500 g/ha ([2]; 500 g ai/ha) of 0%, a pest or weed control at 125 g/ha ([3]; 125 g ai/ha) of 0% and a pest or weed control at 500 g/ha ([3]; 500 g ai/ha) of 0%. The pest or weed control at 125 g/ha ([4]; 125 g ai/ha) was 0%, the pest or weed control at 500 g/ha ([4]; 500 g ai/ha) was 0% and the pest or weed control at 125 g/ha ([5]; 125 g ai/ha) was 60%. It also gave a pest or weed control at 500 g/ha ([5]; 500 g ai/ha) of 90%, a pest or weed control at 125 g/ha ([6]; 125 g ai/ha) of 0% and a pest or weed control at 500 g/ha ([6]; 500 g ai/ha) of 0%. For the same compound, the pest or weed control at 125 g/ha ([7]; 125 g ai/ha) was 0%, the pest or weed control at 500 g/ha ([7]; 500 g ai/ha) was 70% and the pest or weed control at 125 g/ha ([8]; 125 g ai/ha) was 0%. For the same compound, the pest or weed control at 500 g/ha ([8]; 500 g ai/ha) was 0%, the pest or weed control at 125 g/ha ([9]; 125 g ai/ha) was 0% and the pest or weed control at 500 g/ha ([9]; 500 g ai/ha) was 0%. For the same compound, the pest or weed control at 125 g/ha ([10]; 125 g ai/ha) was 0%, the pest or weed control at 500 g/ha ([10]; 500 g ai/ha) was 0% and the pest or weed control at 125 g/ha ([11]; 125 g ai/ha) was 0%. The pest or weed control at 500 g/ha ([11]; 500 g ai/ha) was 60%, the pest or weed control at 125 g/ha ([12]; 125 g ai/ha) was 0% and the pest or weed control at 500 g/ha ([12]; 500 g ai/ha) was 0%. It also gave a plant injury at 125 g/ha ([13]; 125 g ai/ha) of 0%, a plant injury at 500 g/ha ([13]; 500 g ai/ha) of 0% and a Corn plant response rating (crop injury, 0 = no effect, 100 = complete kill) at 125 g/ha ([14]; 125 g ai/ha) of 0%. For the same compound, the Corn plant response rating (crop injury, 0 = no effect, 100 = complete kill) at 500 g/ha ([14]; 500 g ai/ha) was 0%, the pest or weed control at 125 g/ha ([15]; 125 g ai/ha) was 0% and the pest or weed control at 500 g/ha ([15]; 500 g ai/ha) was 0%. The pest or weed control at 125 g/ha ([16]; 125 g ai/ha) was 0%, the pest or weed control at 500 g/ha ([16]; 500 g ai/ha) was 0% and the plant injury at 250 g/ha [17] was 0%. It also gave a pest or weed control at 250 g/ha [18] of 0%, a pest or weed control at 250 g/ha [19] of 40% and a pest or weed control at 250 g/ha [20] of 0%.

Reference: patent US9944602B2, “Piperidinone herbicides” (E. I. DU PONT DE NEMOURS AND COMPANY, priority 2014, dated 2018)
